Data: the supplement of paper PMC10307832

What was measured:
Assay in all cases: relative viability (nuclei count vs DMSO), 5 days (fraction); higher = more cells survive
[1] = test system: NCI-H596
How it was run: (§1)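 Lung cancer cell lines in 1536-well plates were dosed by pin tool the day after seeding, either with one drug alone or with a fixed anchor-drug dose plus five library-drug doses (not always all listed) in √10 steps. After 5 days, cells were fixed and their nuclei stained in one step (final 0.05% Triton X-100, 1% formaldehyde, 1 ug/ml Hoechst), then counted on 4× images. Relative viability is the nuclei count in treated wells divided by that in vehicle wells. Values are medians of duplicate plates.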

[2] = test system: NCI-H1623
How it was run: as §1

[3] = test system: NCI-H1299
How it was run: as §1

[4] = test system: Calu-6
How it was run: as §1

[5] = test system: IA-LM
How it was run: as §1

[6] = test system: EBC-1
How it was run: as §1

[7] = test system: NCI-H1703
How it was run: as §1

[8] = test system: A549
How it was run: as §1

[9] = test system: NCI-H1648
How it was run: as §1

Clc1ccc(Nc2nnc(Cc3ccncc3)c3ccccc23)cc1 [Vatalanib] + Cc1nc(Nc2ncc(C(=O)Nc3c(C)cccc3Cl)s2)cc(N2CCN(CCO)CC2)n1 [Dasatinib] (partner 0.075 µM)
relative viability ([1]; first compound 0.04 µM): 0.643 | relative viability ([1]; first compound 0.1265 µM): 0.652 | relative viability ([1]; first compound 0.4 µM): 0.637 | relative viability ([1]; first compound 1.265 µM): 0.518 | relative viability ([1]; first compound 4 µM): 0.592 | relative viability ([2]; first compound 0.04 µM): 0.449 | relative viability ([2]; first compound 0.1265 µM): 0.619 | relative viability ([2]; first compound 0.4 µM): 0.545 | relative viability ([2]; first compound 1.265 µM): 0.533 | relative viability ([2]; first compound 4 µM): 0.435

COc1cc(N2CCC(C(N)=O)CC2)ccc1Nc1nc(N)c(Cl)c(Nc2ccccc2S(=O)(=O)C(C)C)n1 [HG-5-88-01] + Cc1nc(Nc2ncc(C(=O)Nc3c(C)cccc3Cl)s2)cc(N2CCN(CCO)CC2)n1 [Dasatinib] (partner 0.075 µM)
relative viability ([1]; first compound 0.04 µM): 0.6 | relative viability ([1]; first compound 0.1265 µM): 0.494 | relative viability ([1]; first compound 0.4 µM): 0.544 | relative viability ([1]; first compound 1.265 µM): 0.416 | relative viability ([1]; first compound 4 µM): 0.288 | relative viability ([2]; first compound 0.04 µM): 0.533 | relative viability ([2]; first compound 0.1265 µM): 0.532 | relative viability ([2]; first compound 0.4 µM): 0.498 | relative viability ([2]; first compound 4 µM): 0.486

CC(C)Oc1cc(Nc2nc(N[C@@H](C)c3ccc(F)cn3)ncc2Cl)n[nH]1 [AZ23] + C[C@]1(O)C[C@@H](c2nc(-c3ccc4ccc(-c5ccccc5)nc4c3)c3c(N)nccn32)C1 [Linsitinib] (partner 1 µM)
relative viability ([3]; first compound 0.01 µM): 0.977 | relative viability ([3]; first compound 0.03162 µM): 0.99 | relative viability ([3]; first compound 0.3162 µM): 1.09 | relative viability ([1]; first compound 0.01 µM): 1.09 | relative viability ([1]; first compound 0.03162 µM): 1.18 | relative viability ([1]; first compound 0.3162 µM): 1 | relative viability ([4]; first compound 0.03162 µM): 1.01 | relative viability ([4]; first compound 0.3162 µM): 0.953 | relative viability ([5]; first compound 0.01 µM): 0.601 | relative viability ([5]; first compound 0.03162 µM): 0.386 | relative viability ([5]; first compound 0.3162 µM): 0.627 | relative viability ([6]; first compound 0.01 µM): 1.1 | relative viability ([6]; first compound 0.03162 µM): 0.836 | relative viability ([6]; first compound 0.3162 µM): 1.07 | relative viability ([7]; first compound 0.03162 µM): 0.647 | relative viability ([7]; first compound 0.3162 µM): 0.592 | relative viability ([8]; first compound 0.01 µM): 0.659 | relative viability ([8]; first compound 0.03162 µM): 0.572 | relative viability ([8]; first compound 0.3162 µM): 0.701

CC(C)Oc1cc(Nc2nc(N[C@@H](C)c3ccc(F)cn3)ncc2Cl)n[nH]1 [AZ23] + CS(=O)(=O)N1CCN(Cc2cc3nc(-c4cccc5[nH]ncc45)nc(N4CCOCC4)c3s2)CC1 [Pictilisib] (partner 1 µM)
relative viability ([3]; first compound 0.03162 µM): 0.954 | relative viability ([3]; first compound 0.3162 µM): 1.13 | relative viability ([1]; first compound 0.01 µM): 0.359 | relative viability ([1]; first compound 0.03162 µM): 0.342 | relative viability ([1]; first compound 0.3162 µM): 0.397 | relative viability ([4]; first compound 0.01 µM): 0.883 | relative viability ([4]; first compound 0.03162 µM): 1.13 | relative viability ([4]; first compound 0.3162 µM): 0.986 | relative viability ([5]; first compound 0.01 µM): 0.403 | relative viability ([5]; first compound 0.03162 µM): 0.334 | relative viability ([5]; first compound 0.3162 µM): 0.419 | relative viability ([6]; first compound 0.01 µM): 0.312 | relative viability ([6]; first compound 0.03162 µM): 0.397 | relative viability ([6]; first compound 0.3162 µM): 0.345 | relative viability ([7]; first compound 0.03162 µM): 0.291 | relative viability ([7]; first compound 0.3162 µM): 0.218 | relative viability ([8]; first compound 0.01 µM): 0.586 | relative viability ([8]; first compound 0.03162 µM): 0.676 | relative viability ([8]; first compound 0.3162 µM): 0.416

Clc1ccc(Nc2nnc(Cc3ccncc3)c3ccccc23)cc1 [Vatalanib] + O=C(c1cc(Cc2n[nH]c(=O)c3ccccc23)ccc1F)N1CCN(C(=O)C2CC2)CC1 [Olaparib] (partner 8 µM)
relative viability ([3]; first compound 0.04 µM): 0.986 | relative viability ([3]; first compound 0.1265 µM): 0.924 | relative viability ([3]; first compound 0.4 µM): 1.04 | relative viability ([3]; first compound 1.265 µM): 0.923 | relative viability ([3]; first compound 4 µM): 0.965 | relative viability ([1]; first compound 0.04 µM): 0.751 | relative viability ([1]; first compound 0.1265 µM): 0.741 | relative viability ([1]; first compound 0.4 µM): 0.63 | relative viability ([1]; first compound 1.265 µM): 0.652 | relative viability ([1]; first compound 4 µM): 0.765 | relative viability ([4]; first compound 0.1265 µM): 0.567 | relative viability ([4]; first compound 0.4 µM): 0.539 | relative viability ([4]; first compound 1.265 µM): 0.554 | relative viability ([4]; first compound 4 µM): 0.541 | relative viability ([5]; first compound 0.04 µM): 0.89 | relative viability ([5]; first compound 0.1265 µM): 0.843 | relative viability ([5]; first compound 0.4 µM): 0.831 | relative viability ([5]; first compound 1.265 µM): 0.701 | relative viability ([5]; first compound 4 µM): 0.645 | relative viability ([6]; first compound 0.04 µM): 0.761 | relative viability ([6]; first compound 0.1265 µM): 0.59 | relative viability ([6]; first compound 0.4 µM): 0.817 | relative viability ([6]; first compound 1.265 µM): 0.663 | relative viability ([6]; first compound 4 µM): 0.654 | relative viability ([9]; first compound 0.04 µM): 0.943 | relative viability ([9]; first compound 0.1265 µM): 0.866 | relative viability ([9]; first compound 0.4 µM): 1.01 | relative viability ([9]; first compound 1.265 µM): 0.611 | relative viability ([9]; first compound 4 µM): 1.04 | relative viability ([7]; first compound 0.04 µM): 0.506 | relative viability ([7]; first compound 0.4 µM): 0.624 | relative viability ([7]; first compound 1.265 µM): 0.299 | relative viability ([7]; first compound 4 µM): 0.22 | relative viability ([8]; first compound 0.04 µM): 0.478 | relative viability ([8]; first compound 0.1265 µM): 0.302 | relative viability ([8]; first compound 0.4 µM): 0.532 | relative viability ([8]; first compound 1.265 µM): 0.239 | relative viability ([8]; first compound 4 µM): 0.3
